Assay results published in patent US7754856B2, “Human sodium-dependent bile acid transporter proteins” (Takeda Pharmaceutical Company Limited, priority 2002, dated 2010).

Molecular target: T1, human TCH230 (Homo sapiens, UniProt Q3KNW5)
T1 construct: expressed in transfected cells
T1 sequence (Q3KNW5 1-377): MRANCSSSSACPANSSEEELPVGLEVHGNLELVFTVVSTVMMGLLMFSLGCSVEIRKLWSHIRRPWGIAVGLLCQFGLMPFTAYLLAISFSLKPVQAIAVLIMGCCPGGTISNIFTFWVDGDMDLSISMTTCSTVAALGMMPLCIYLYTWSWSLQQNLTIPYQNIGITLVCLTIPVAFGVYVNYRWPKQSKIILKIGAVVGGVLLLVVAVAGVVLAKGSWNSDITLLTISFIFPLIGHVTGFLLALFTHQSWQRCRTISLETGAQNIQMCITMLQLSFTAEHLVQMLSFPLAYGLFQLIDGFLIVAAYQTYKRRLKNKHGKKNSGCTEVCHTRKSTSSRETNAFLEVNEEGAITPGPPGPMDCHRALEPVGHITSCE
Assay: Incorporation of labeled steroid sulfates into human TCH230-expressing CHO cell strain
Type: cell-based
Details: for incorporation into human TCH230 expressing CHO cells (radioactivity): CHO clone No. 19-6, in the presence of 140 mM NaCl (NaCl buffer vs NMDG buffer, vs Mock cells), 37° C., 1 hour, values only in FIG. 17/18; for substrate of the novel sodium-dependent bile acid transporter protein: summary statement in disclosure
Procedure: Incorporation of [6,7-^3H(N)]-estrone sulfate and [1,2,6,7-^3H(N)]-dehydroepiandrosterone sulfate (hereinafter also referred to as [1,2,6,7-^3H(N)]-DHEA-S) into the human TCH230 (SEQ ID NO:1)-expressing CHO cell strain clone No. 19-6 obtained in Example 19 was measured.
The human TCH230 (SEQ ID NO:1) expressing CHO cell strain clone No. 19-6 was inoculated at a density of 4×10^4 cells/well in a 96 well plate, and cultured at 37° C. for 24 hours in MEMα medium (Invitrogen, Inc.) containing 5 mM sodium butyrate. The medium was removed, and the cells were washed 3 times with 150 μL NMDG buffer (140 mM N-methyl-D(−)-glucamine, 5.4 mM KCl, 0.34 mM Na2HPO4, 0.44 mM KH2PO4, 1.26 mM CaCl2, 0.41 mM MgSO4, 0.49 mM MgCl2, 5.55 mM glucose, pH 7.4-7.6), and incubated in 150 μL NMDG buffer at 37° C. for 1 hour. The buffer was replaced with 90 μL NaCl buffer (140 mM NaCl, 5.4 mM KCl, 0.34 mM Na2HPO4, 0.44 mM KH2PO4, 1.26 mM CaCl2, 0.41 mM MgSO4, 0.49 mM MgCl2, 5.55 mM glucose, pH 7.4-7.6) or 90 μL NMDG buffer, followed by adding 10 μL of 2.5 μM estrone sulfate, ammonium salt, [6,7-^3H(N)]— or 1.37 μM dehydroepiandrosterone sulfate, sodium salt, [1,2,6,7-^3H(N)]— (all of which are available from Perkin-Elmer Life Science). The cells were incubated at 37° C. for 1 hour, and the buffer was removed, then washed 3 times with 200 μL PBS (Takara Bio) and lysed with 10 μL of 0.1N NaOH. 100 μL SuperMix scintillator (Perkin-Elmer Life Science) was added thereto and stirred, and the amount of [6,7-^3H(N)]-estrone sulfate or [1,2,6,7-^3H(N)]-DHEA-S incorporated into the cells was measured in terms of radioactivity. This measurement was carried out with 1450 MICROBETA PLUS LIQUID SCINTILLATION COUNTER (Perkin-Elmer Life Science). CHO dhfr− cells into which vector pcDNA3.1(+) had been introduced (also referred to hereinafter as Mock) was also subjected to the same procedure and measured for radioactivity.

Substance | incorporation into human TCH230 expressing CHO cells (radioactivity) | substrate of the novel sodium-dependent bile acid transporter protein
[1,2,6,7-^3H(N)]-dehydroepiandrosterone sulfate [[1,2,6,7-^3H(N)]-DHEA-S] | incorporate | substrate
[6,7-^3H(N)]-estrone sulfate | incorporate | substrate
